Data on five compounds can be found in patent US20070015815A1, “Hydrazide substrate shuts down protein biosynthesis capability in cells that host a metastatic or malignant disease mechanism” (priority 2003, published 2007).

One series relates to fetal cells. Type of series: in vivo. The settings on record: offspring.
The next series has as its system HIV. Format: in vivo, human.
Another series concerns influenza. The series is described as follows: influenza of the applicant. Format: in vivo, human. The settings on record: small dose. The source says: Such irreversible substrate concept has been postulated as an oxidase enzyme inhibitor which the applicant agrees is correct in context that such is a protease inhibitor and not an oxidase inhibitor. Such concept provides a hypothesis that logically explains all hydrazide biological prior art phenomena and can predict the prodrug type irreversible substrate action of any simple or low molecular weight hydrazide molecule. The irreversible substrate type protease inhibitor idea is also in agreement with the antidepressant drug explanation and working model, and the Malazide explanation and working model, and was predicted and illustrated by the mouse fetus experiment, and additionally concurs with the Marboran antiviral working model and explanation. […] And following a long period of time where no research was conducted due to family tragedies and related obstruction, the applicant returned to such work where the MAOI type hydrazide, Iproniazid, was then successfully used to target and shutdown protein biosynthesis in cells that hosted malignant disease mechanisms comprising various types of cancers and viral infections. […]

Another series deals with basal cell carcinoma. The series is described as follows: basal cell carcinoma of the applicant. Format: in vivo, human. The settings on record: during the melanoma treatment. The source says: A second more benign cancer growth coexisted at the same time while the melanoma treatment was ongoing which was of the basal cell carcinoma type which was not very noticeable, bothersome, or believed to be life threatening, but which also disappeared following the hydrazide melanoma treatment. The basal cell carcinoma was located below the left eye on the applicant's cheek which was characterized by a hard, gritty, cellular formation where scratching or rubbing the surface would dislodge some of the small hard cells which is a common characteristic of basal cell carcinoma. Although the condition was not apparent or at a life threatening stage at the time, and had never raised concerns or the idea of providing opportunity for Iproniazid screening as the melanoma cancer did, it was nevertheless inadvertently shutdown by Iproniazid and had likewise disappeared. Such successful use of Iproniazid as a cancer treatment method constitutes a new cancer treatment use for the MAOI hydrazide product.

For the next series, the system named is Kaposi's Sarcoma. The series is described as follows: Kaposi's Sarcoma of the applicant. Details: species or system human. The settings on record: in vivo.
Series [1] has as its system bacterial gastroenteritis. The series is described as follows: bacterial gastroenteritis of the applicant. Format: in vivo, human. The settings on record: 100 mg dose with warm tap water.
For series [2] the following is noted: Public Health Service Pub. No.1589 (1967); cited from earlier work.
The subject of another series is tuberculosis organism. The settings on record: Fox, 1952; cited from earlier work.
The conditions of series [3]: in vivo; cited from earlier work.
For series [4] the following is noted: cited from earlier work.
Another series has as its system smallpox. The settings on record: Thompson, about 1953; cited from earlier work.
The test system of another series is polio. The settings on record: Thompson, about 1953; cited from earlier work.
For series [5] the following is noted: 1500 mg to 3000 mg daily; cited from earlier work.
The test system of the next series is viral conjunctivitis. The series is described as follows: viral conjunctivitis of the applicant. Format: in vivo, human. The settings on record: single dose of about 100 mg.
For a further series, the system named is malignant melanoma. The series is described as follows: malignant melanoma of the applicant. Type of series: in vivo, human. The settings on record: about 100 mg daily for about three or four weeks. An excerpt: The MAOI hydrazide anticancer concept was reduced to practice by the applicant when an impromptu opportunity appeared after a decade old mole began to metastasize. The growth was about a half inch in diameter located in the center of the applicant's forehead, and had remained stable, symmetrical, and unchanged for years when it began to increase in size, shape, and having mixed pigmentation indicative of malignant melanoma. At such time the applicant began a treatment regimen based on Iproniazid Phosphate at about 100 mg daily for about three or four weeks when the perimeter of the growth began to separate from the skin surface underneath and itch. The applicant would unconsciously pick at the protruding edge as if picking at a scab which served to more quickly separate the neoplastic part at its perimeter where sections were peeled away.

Read-outs that look alike come from different tables or passages of the source.

Turning to `CC(C)NNC(=O)c1ccncc1` [Iproniazid, Isonicotinic acid 2-isopropylhydrazide], the “outcome of fetal cell division and growth shutdown in pregnant mice” value with fetal cells is given as “birth of all healthy mice that matured normally to provide midget size adults”. The “outcome after completed treatment study” value in the series with HIV (after planned research was completed) is given as “the virus was eradicated in total”. For the same compound, in the series with influenza, the effect on influenza result is listed as “very rapid recovery”. Further, the “effect on basal cell carcinoma” value in the series with basal cell carcinoma was “disappeared”. For the same compound, in the series with Kaposi's Sarcoma, the “effect on Kaposi's Sarcoma” value was “inhibit and shutdown”. In series [1], the “time until all pain and griping had disappeared” value was no more than 10 min; the “time until most pain was gone” value is no more than 5 min. Besides, the “lethal dose for mice” value in [2] was 1760 mg/kg. Further, in the series on tuberculosis organism, the tuberculostatic activity result is “did not appear to kill the tuberculosis organism”. For the same compound, the cytotoxic effects result in [3] is “no cytotoxic effects”.
As to `NNC(=O)c1ccncc1` [Isoniazid, Isonicotinic acid hydrazide], in the series with tuberculosis organism, the tuberculostatic activity result was “exceeded all other substances screened”. In addition, the “fraction converted by metabolism to the hydrazide (acetyl) metabolite” value in series [4] (in vivo) is listed as 50%.
In the case of `CN1C(=O)C(=NNC(N)=S)c2ccccc21` [Marboran, 1-Methylindole-2,3,-dione 3 thiosemicarbazone], in the series on smallpox, the “antiviral action against smallpox” value is “effective”. Moreover, in the series with polio, the “antiviral action against polio” value was “effective”. Besides, the “side effects accompanying use” value in series [5] is “nausea and vomiting”.
Turning to `NN` [hydrazine], the “fraction converted by metabolism to the hydrazide (acetyl) metabolite” value in series [4] (Fox) was “about 50%”.
On to Iproniazid phosphate, for which the “course after the single dose” value in the series with HIV (after several weeks) is recorded as “the virus begin to return”. The “effect of initial single dose on HIV viral activity” value with HIV (single dose of about 100 mg, applicant) is given as “shutdown the viral activity seemingly in total”. Moreover, the “effect on viral conjunctivitis” value in the series with viral conjunctivitis is “disappearance of the inflamation of the conjunctiva”. Also, the “effect on malignant melanoma growth” value in the series with malignant melanoma is “removed in total”.
